Patent US8815935B2, “Inhibitors of protein prenyltransferases” (The Regents of the University of California, priority 2008, dated 2014)
Where two headings read alike, the source gives them in different places.

Experiments:
[1] = test system: Jurkat cells; assay: Jurkat cell growth inhibition; type: cell-based, human; settings: Homo sapiens, Jurkat
Description: In Table 4 in cell GI50 values for the growth inhibition of Jurkat cells are reported. The GI50 value is the concentration of a test compound needed to produce 50% growth inhibition in the cell type listed. In Table 4 the isolated yield of each synthetic step for the synthesis of corresponding compounds are also reported.
(§1) Panc-1 cells (Pancreatic cancer cell line) and Jurkat cells (T-cell leukemia) were treated with 12.5 μM of P5-H6 or 12.5 μM of mP5-H6a for 72 hours. The cell number was counted as described in Example 5.
(§2) Cell viability was determined by Cell Counting Kit-8 (CCK-8, Dojindo, Kumamoto, Japan) as described previously (31). Cell viability was calculated relative to the DMSO control. Cell cycle profile was analyzed by flow cytometry as described previously (32).

[2] = test system: MDA-MB-231; assay: MDA-MB-231 cell growth inhibition; type: cell-based, human; settings: no unit printed there
Description: (§3) In FIG. 9-24 in vitro IC50 values for the GGTase I activity are reported. In Tables 7-15 in cell GI50 values for the growth inhibition of a variety of cancer cell lines (e.g., Jurkat, K562, MDA-MB-231, BT474, MCF7, MiaPaCa2, Aspc-1, Panc-1, Capan-2, CFpac-1, and MCF10a) are reported.
as §2

[3] = test system: K562 cells; assay: K562 cell growth inhibition; type: cell-based, human; settings: Homo sapiens, K562, Tables 8-15; no unit printed there
Description: K562 cells are a cell line of human erythroleukemia cells. The K562 cells were treated with P3-E5, P5-H6 or GGTI-298 (a known GGTI compound illustrated in FIG. 27) for 72 hours and then cell number was counted using cell counting kit-8 (Dojindo, Gaithersburg, Md.). Cell viability relative to the DMSO control and the known GGTI compound is plotted in FIG. 23.
as §2

[4] = test system: BT474; assay: BT474 cell growth inhibition; type: cell-based, human; settings: Homo sapiens, BT-474, Tables 8-15; no unit printed there
Description: as §3, §2

[5] = biological target: T1, GGTase-I (Rattus norvegicus, UniProt P53610+Q04631); assay: In vitro GGTase-I enzyme assay (IC50, kinetics); type: biochemical
T1 construct: purchased JENA BIOSCIENCE
Description: The GGTase-I assay was carried out using RhoA as a substrate protein, GGTase-I (JENA Bioscience) and [3H]geranylgeranyl pyrophosphate. Incubation was for 30 min at 37° C. GGTase-II (or RabGGTase) assay was carried out using YPTI as a substrate protein, GGTase-II (Calbiochem, San Diego, Calif.) plus REP1 (Calbiochem) and [3H]geranylgeranyl pyrophosphate. Incubation was for 30 min at 37° C. FIGS. 20D-20F show the three dimensional structure of GGTase I (D), FTsse (E) and GGTase II (F) which can be obtained from X-ray diffraction studies of protein crystals.
(§4) GGTase-I and FTase activities were determined by following the incorporation of radiolabeled isoprenoid [^3H]-geranylgeranyl or [^3H]-farnesyl into substrate proteins. FTase or GGTase-I (50 nM) were used to initiate reactions containing 0.4 μM of [^3H]-FPP or 0.5 μM of [^3H]-GGPP and 2 μM of MBP-tagged substrates (K-Ras4B for FTase; RhoA for GGTase-I) in 20 μl of buffer {50 mM Tris-HCl (pH 7.5), 10 mM MgCl2, […] and 5 mM DTT}. Inhibitors were added at the indicated concentrations. The final DMSO concentration was 2.5% for all samples.
(§5) Reactions were carried out for 10 min at 30° C. The reaction mixture was spotted onto a filter paper, treated with 10% trichloroacetic acid (TCA) followed by ethanol and acetone washing. The filter was counted using a scintillation counter. Kinetic assays in which the GGPP concentration was varied employed fixed concentrations of GGTase-I and RhoA, and reactions were carried out for 5 min. Similarly, fixed concentrations of GGTase-I and GGPP were used when the amount of RhoA was varied.

[6] = test system: Panc-1; assay: Panc-1 cell growth inhibition; type: cell-based, human; settings: Homo sapiens, PANC-1, Tables 8-15; no unit printed there
Description: as §3, §1, §2

[7] = test system: MiaPaCa2; assay: MiaPaCa2 cell growth inhibition; type: cell-based, human; settings: Homo sapiens, MIA PaCa-2, Tables 8-15; no unit printed there
Description: as §3, §2

[8] = test system: CFpac-1; assay: CFpac-1 cell growth inhibition; type: cell-based, human; settings: no unit printed there
Description: as §3, §2

[9] = test system: MCF7; assay: MCF7 cell growth inhibition; type: cell-based, human; settings: Homo sapiens, MCF7, Tables 8-15; no unit printed there
Description: as §3, §2

[10] = test system: Aspc-1; assay: Aspc-1 cell growth inhibition; type: cell-based, human; settings: Homo sapiens, ASPC1, Tables 8-15; no unit printed there
Description: as §3, §2

[11] = test system: MCF10a; assay: MCF10a cell growth inhibition; type: cell-based; settings: Homo sapiens, MCF-10A, Tables 8-15; no unit printed there
Excerpt: as §3

[12] = test system: Capan-2; assay: Capan-2 cell growth inhibition; type: cell-based, human; settings: Homo sapiens, Capan-2, Tables 8-15; no unit printed there
Description: as §3, §2

[13] = test system: geranylgeranylated Rheb (Rheb-CSVL) in HEK 293 cells; assay: Rheb-CSVL mobility shift in HEK 293 cells; type: cell-based, human; settings: 48 hours
Excerpt: Finally, we investigated in vivo effects of compounds 22 (also known as UC-22) and 23 (also known as UC-23). Human embryonic kidney (HEK) 293 cells were transfected with the Rheb-CSVL construct that expresses the geranylgeranylated form of the Rheb protein. Inhibition of the geranylgeranylation of this protein can be detected from a shift in its mobility on SDS polyacrylamide gel; the unprocessed form appears as a slowly migrating band.
Human embryonic kidney (HEK) 293 cells expressing Myc-HA tagged-Rheb-CVSL (upper) or Myc-HA tagged-Rheb-WT (lower) were treated with P3-E5 for 48 hours and then lysed. The cell lysates were run on a SDS polyacrylamide gel and immunoblotted using anti-Myc or anti-Actin antibody. The descriptors P and U indicate processed and unprocessed Rheb, respectively.
Human embryonic kidney (HEK) 293 cells expressing Myc-HA tagged-Rheb-CVSL (upper) or Myc-HA tagged-Rheb-WT (lower) were treated with mP5-H6a (also referred to as mP5-H6), or GGTI-298 for 48 hours and then lysed. Lysates were run on a SDS polyacrylamide gel and immunoblotted with anti-Myc or anti-Actin antibody.

[14] = biological target: T2, FTase (Rattus norvegicus, UniProt Q02293+Q04631); assay: In vitro FTase assay (K-Ras4B substrate, [3H]FPP); type: biochemical
T2 construct: purchased JENA BIOSCIENCE
Excerpt: To further characterize the pilot library, inhibitors of protein farnesyltransferase were identified. This was accomplished by using K-Ras4B as a substrate protein, tritiated farnesylpyrophosphate ([^3H]FPP) and protein farnesyltransferase. See Finegold, A. A., Johnson, D. I., Farnsworth, C. C., Gelb, M. H., Judd, S. R., Glomset, J. A. and Tamanoi, F. (1991) Protein geranylgeranyltransferase of Saccharomyces cerevisiae is specific for Cys-Xaa-Xaa-Leu motif and requires the CDC43 gene product but not the DPR1 gene product. Proc. Natl. Acad. Sci. USA 88, 4448-4452. […] On the other hand, the structure of the compounds P1-F11, P2-B7 and P2-E9 resemble those of GGTIs. The FTI P1-F11 resembles the GGTI P1-F10, while the FTI P2-B7 resembles the GGTI P2-C10. The FTI P2-E9 is similar to the GGTI P2-G3. Similarity of some GGTI and FTI compounds may point to common structural features between the two closely related enzymes. As described before, FTase and GGTase I have similar three-dimensional structures and a shared alpha subunit. On the other hand, FTase specific inhibitors may recognize a region(s) that is different between the two enzymes.
Examples 2-8 illustrate assays of bioactivity. These methods are applicable to the compounds of the present invention having the particular linkers and scaffolds described herein, to determine their activity. […] Varying concentrations of the two compounds were added to each enzyme reaction. The FTase (protein farnesyltransferase) assay was carried out using K-Ras4B as a substrate protein, FTase (JENA Bioscience, San Diego, Calif.) and [3H]farnesyl pyrophosphate. Incubation was for 30 min at 37° C.
as §4, §5

[15] = Tables 8-15, no unit printed there, read-out: Jurkat GI50
[16] = Tables 8-15, no unit printed there (Table 7 head: μM unless otherwise specified), read-out: In vitro (GGTase I IC50)
[17] = Tables 4, 6, 7, read-out: Jurkat cell GI50
[18] = Homo sapiens, CFPAC-1, Tables 8-15
[19] = Tables 3, 5, 7, read-out: In vitro (enzyme assay) IC50, GGTase I

GI50 [1, 15] [µM]	GI50 [3] [µM]	GI50 [4] [µM]	IC50 [5, 16] [µM]	GI50 [6] [µM]	GI50 [7] [µM]	GI50 [1, 17] [µM]	GI50 [10] [µM]	IC50 [5, 19] [µM]	SMILES	GI50 [8, 18] [µM]	GI50 [12] [µM]	further results
6.58	6.7	5.28	8.1	–	–	–	–	–	Cc1ccccc1S(=O)(=O)N1[C@@H](c2ccc(Cl)cc2)C(C(=O)N[C@@H](CC(C)C)C(N)=O)=C[C@H]1C(C)(C)C [drawing 156]	–	–	GI50 ([2]; Homo sapiens, MDA-MB-231, Tables 8-15): 6.68 µM
9.79	6.3	10.8	> 10	8.85	7.17	9.76	11.4	> 10	Cc1ccccc1S(=O)(=O)N1[C@@H](c2ccc(Cl)cc2)C(C(=O)N[C@@H](Cc2ccccc2)C(N)=O)=C[C@H]1C(C)CC(C)(C)C (stereo partly shown) [P61-C03]	1.25	10.5	GI50 [9]: 3.1 µM; GI50 [11]: 9.16 µM

Continued, compound first:

SMILES	GI50 [1, 15] [µM]	GI50 [3] [µM]	GI50 [4] [µM]	IC50 [5, 16] [µM]	GI50 [6] [µM]	GI50 [7] [µM]	GI50 [1, 17] [µM]	GI50 [10] [µM]	IC50 [5, 19] [µM]	GI50 [8, 18] [µM]	GI50 [12] [µM]	further results
Cc1ccccc1S(=O)(=O)N1[C@@H](c2ccc(Cl)cc2)C(C(=O)O)=C[C@H]1C(C)(C)C [compound 22]	–	–	–	–	–	–	–	–	–	–	–	inhibition of geranylgeranylation of Rheb-CSVL (slowly migrating unprocessed band) [13]: inhibit geranylgeranylation within the cell; inhibition of FTase ([14]; at concentrations at which GGTase-I was inhibited by more than 90%): did not inhibit FTase
Cc1ccccc1S(=O)(=O)N1[C@@H](c2ccc(Cl)c(Cl)c2)C(C(=O)N[C@@H](Cc2ccccc2)C(N)=O)=C[C@H]1C(C)(C)C [P61-B10]	5.62	6.74	10.8	5.4	11.7	8.06	5.62	12.9	5.4	–	8.45	GI50 ([2]; Tables 8-15): 12.6 µM; GI50 ([8]; Tables 8-15): 6.09 µM
CC(C)(C)[C@@H]1C=C(C(=O)N[C@@H](Cc2ccccc2)C(N)=O)[C@H](c2ccc(Br)cc2)N1S(=O)(=O)c1ccccc1Cl [P61-B08]	4.74	5.21	9.08	6	9.05	6.15	4.74	12.2	16	6.16	8.32	GI50 ([2]; Tables 8-15, listed as P61B8): 4.43 µM
Cn1cncc1CN1C[C@@H](Cc2ccccc2)N(S(=O)(=O)c2cccs2)Cc2cc(C#N)ccc21 [BMS225975, reference compound]	–	–	–	–	–	–	–	–	–	–	–	inhibition of FTase activity (FIG. 16) ([14]; P3-D9, P3-E5: concentration increased to 100 (unit not given)): inhibits FTase; inhibition of GGTase I (FIG. 16 controls) [5]: does not inhibit GGTase I
